Reference: US8560243B2, “Methods for determining therapeutic index from gene expression profiles” (Microsoft Corporation, priority 1998, dated 2013)

Legend:
yeast gene YOL031C = assay: Yeast gene expression response to methotrexate exposure, Hill function fit; format: cell-based, S. cerevisiae; conditions: least squares fit
From the text: FIG. 4 illustrates the fit of a Hill function to the response of gene YOL031C illustrated in FIG. 3.
[formula] The adjustable parameters are selected independently for each cellular constituent of the drug response and for each cellular constituent of the pathway response. Preferably, the adjustable parameters are selected so that for each cellular constituent of each pathway response the sum of the squares of the distances of H(pi,l) from Ri,l(Pi,l) is minimized, and so that for each cellular constituent of the drug response the sum of the squares of the distances of H(tl) from Dk(tl) is minimized. This preferable parameter adjustment method is known in the art as a least squares fit of H( ) to Ri,k( ) or to Dk( ). Other possible model functions are based on polynomial fitting, for example by various known classes of polynomials.
Model fitting with a Hill function is illustrated with respect to FIGS. 3 and 4. As discussed, FIG. 3 illustrates an example of a pathway perturbed by methotrexate and identified by measurement. This figure illustrates the mRNA expression levels of 30 genes of the yeast S. cerevisiae that, of the approximately 6000 genes in the genome of this yeast, had the largest expression changes in response to six different exposure levels of methotrexate. FIG. 4 illustrates a fit of the pathway response of one of these gene expression levels by a Hill function. In particular, the yeast gene YOL031C was fit by a Hill function with parameters n=2, a=−0.61, and log10 (u0)=1.26 selected by the previously described least squares method.

yeast = assay: Growth of yeast under methotrexate titration; format: cell-based, S. cerevisiae; conditions: 100 μM titration
off-target genes = assay: Transcriptional response to FK506 titration in yeast strain with CNA1 and CNA2 deleted; format: cell-based, S. cerevisiae
From the text: The response of those genes to FK506 were considered as off-target activity. Each ORF (Open Reading Frame) may be corresponding to an off-target gene.

From the text for calcineurin pathway: In this example, the expression of a number of genes are monitored as a wild type yeast culture is subjected to a graded levels of the drug FK506 (FIG. 8A). Similar experiments are repeated with a yeast culture whose CNA1 and CNA2 genes are deleted (FIG. 8B). CNA1 and CNA2 are two components of the calcineurin multi-protein complex. Because the drug FK506 acts upon the calcineurin protein to exert its activity on the calcineurin pathway. Deletion of CNA1 and CNA2 eliminates the primary target pathway for FK506. […]
Control cultures were treated with the same volume of just ethanol. Growth was monitored by OD600 and cells were harvested at OD600=1.4+/−0.1 by centrifugation for 2 min at ambient temperature in a Sorvall RC5C+ centrifuge in a SLA-1500 rotor. […]
Extent of hybridization was determined by scanning with a prototype multi-frame CCD camera slides produced by Applied Precision, Inc. Images were processed by informatics and imported into the Inpharna database and analyzed using the MatLab data analysis package.
The horizontal axis is concentrations of the FK506 in logarithmic scale and the vertical axis is the values of the logarithm of the expression ratio of the genes most affected by FK506 on the vertical axis. […] P-Value is the probability that the up or down regulation is due to measurement error, as determined from observed statistics of the errors in Log 10 (expression ratio).

CN(Cc1cnc2nc(N)nc(N)c2n1)c1ccc(C(=O)N[C@@H](CCC(=O)O)C(=O)O)cc1 [methotrexate]
Hill function parameter a (yeast gene YOL031C): −0.61 | Hill function parameter n (yeast gene YOL031C): 2 | Hill function parameter log10 (u0) (yeast gene YOL031C; exposure levels in μM): 1.26 | growth defect (yeast): 50%

C=CC[C@@H]1/C=C(\C)C[C@H](C)C[C@H](OC)[C@H]2O[C@@](O)(C(=O)C(=O)N3CCCC[C@H]3C(=O)O[C@H](/C(C)=C/[C@@H]3CC[C@@H](O)[C@H](OC)C3)[C@H](C)[C@@H](O)CC1=O)[C@H](C)C[C@@H]2OC [FK506]
concentration at which expression of most genes affected via the primary target (calcineurin pathway) reaches two fold induction or repression (calcineurin pathway): 200 ng/mL | concentration at which expression of most off-target genes reaches two fold induction or repression (calcineurin pathway): 12000 ng/mL | Log10(Ratio) (off-target genes; ORF ARG1, deletion strain): 0.9516 | Log10(Ratio) (off-target genes; ORF ARG4, deletion strain): 0.7774 | Log10(Ratio) (off-target genes; ORF ARG5, 6, deletion strain): 0.9136 | Log10(Ratio) (off-target genes; ORF ARO3, deletion strain): 0.6261 | Log10(Ratio) (off-target genes; ORF CPA1, deletion strain): 0.5645 | Log10(Ratio) (off-target genes; ORF CPA2, deletion strain): 0.645 | Log10(Ratio) (off-target genes; ORF ECM13, deletion strain): 0.8176 | Log10(Ratio) (off-target genes; ORF GRE2, deletion strain): 0.6836 | Log10(Ratio) (off-target genes; ORF HIS3, deletion strain): 0.6152 | Log10(Ratio) (off-target genes; ORF HIS4, deletion strain): 0.8178 | Log10(Ratio) (off-target genes; ORF HIS5, deletion strain): 0.8266 | Log10(Ratio) (off-target genes; ORF NCE3, deletion strain): 0.5112 | Log10(Ratio) (off-target genes; ORF PDR5, deletion strain): 0.597 | Log10(Ratio) (off-target genes; ORF RIB5, deletion strain): 0.7436 | Log10(Ratio) (off-target genes; ORF SNO1, deletion strain): 0.7711 | Log10(Ratio) (off-target genes; ORF SNQ2, deletion strain): 0.6624 | Log10(Ratio) (off-target genes; ORF SNZ1, deletion strain): 0.9834 | Log10(Ratio) (off-target genes; ORF YER175C, deletion strain): 1.0121 | Log10(Ratio) (off-target genes; ORF YGL117W, deletion strain): 0.8608 | Log10(Ratio) (off-target genes; ORF YHM1, deletion strain): 0.5235 | Log10(Ratio) (off-target genes; ORF YMR085W, deletion strain): 0.7679 | Log10(Ratio) (off-target genes; ORF YMR097C, deletion strain): 0.6945 | Log10(Ratio) (off-target genes; ORF YOL150C, deletion strain): 0.7246 | Log10(Ratio) (off-target genes; ORF YOR1, deletion strain): 0.5928 | Log10(Ratio) (off-target genes; ORF YOR203W, deletion strain): 0.6378 | Log10(Ratio) (off-target genes; ORF YPL088W, deletion strain): 0.4764 | toxic concentration: off-target transcriptional responses of many genes reach two-fold induction or repression (off-target genes; by inspection of FIG. 8B, calcineurin-deleted strain): approximately 12 mg/ml
